Data on five compounds can be found in article PMC12394552, “Multi-biological activity evaluation of Sn(П), Zn(П) and Fe(П) complexes based on thiocarbohydrazide schiff bases: synthesis, spectroscopic investigations and fluorescence studies” (Scientific Reports, 2025).

Values after ≈ are worked out from the molar mass of the structure shown. Read-outs that look alike come from different tables or passages of the source.

One series deals with RAW 264.7 macrophages. Briefly: SRB cytotoxicity on RAW 264.7 viability. Format: cell-based. As to conditions: Mus musculus, RAW264.7, read-out: RAW 264.7 viability IC50 value. The method, then: (§1) All malignancy cell lines were cultured in high glucose DMEM (Bio Whittaker, Verviers, Belgium) containing 10% FBS, 4-(2-hydroxyethyl)-1-piperazineethanesulfonic acid (HEPES) Buffer (10 mM), L-glutamine (2 mM), gentamicin (50 µg/mL), penicillin (100 U/mL), and streptomycin sulfate ([…]) from Sigma (St. Luis, MO, USA) whereas Sulforhodamine B was from Santa Cruz Biotechnology (Inc. Texas, USA). Surviving cancer cell lines provide numerous advantages; they provide a pure and continuous supply of cells, thus overcoming any ethical barriers concerning human tissue usage, and are cost-effective. For cytotoxicity screening, adherent monolayers of all procured malignancies’ cell lines were examined. Periodontal ligament fibroblasts (PDL) were used to determine selective cytotoxicity.
RAW 264.7 mouse macrophage cell line (ATCC® TIB-71) were cultured in high glucose DMEM supplemented with 10% (FBS), penicillin (100 U/mL), streptomycin (100 µg/mL), and L-glutamate (100 µg/mL) in a 37 °C humidified atmosphere with 95% air and 5% CO2. Confluent macrophages (2 × 10^5/well) were incubated with inflammation-priming lipopolysaccharide (LPS; Sigma, St. Luis, MO, USA) with either indomethacin as the reference agent[39] or treatment compounds at different concentrations (1.563-200 µM). Griess reagent was mixed with aliquots of cell culture media and incubated at R.T. for 10 min. Absorbance at 550 nm was determined using a microplate reader (Spectro Scan 80D UV-VIS spectrophotometer (Sedico Ltd., Nicosia, Cyprus). The nitrite concentration was determined by comparison with a sodium nitrite standard curve. SRB cytotoxicity protocol was performed for evaluation of the effect of the studied test compounds on RAW 264.7 viability.

For series [1], the system named is Periodontal ligament fibroblasts (PDL). Briefly: SRB selective cytotoxicity in normal fibroblasts. It counts as cell-based. The method, then: as §1
The test system of series [2] is BT-549 invasive mammary malignancy. Description: SRB antiproliferative assay. To be noted: read-out: Cytotoxicity (as of %control) IC50 value, BT-549 invasive mammary malignancy. Format: cell-based, human. The method, then: as §1
In general terms: In SRB staining, fixed cells bind dye roughly in proportion to their protein.

Series [3] concerns MDA-MB-453 invasive mammary malignancy. Description: SRB antiproliferative assay. Format: cell-based, human. As to conditions: read-out: Cytotoxicity (as of %control) IC50 value, MDA-MB-453 invasive mammary malignancy. The method, then: as §1
Another series deals with MCF7 mammary malignancy. Briefly: SRB antiproliferative assay. Format: cell-based, human. To be noted: read-out: Cytotoxicity (as of %control) IC50 value, MCF7 mammary malignancy. The method, then: as §1
A further series has as its system T47D mammary malignancy. Briefly: SRB antiproliferative assay. It counts as cell-based, human. To be noted: read-out: Cytotoxicity (as of %control) IC50 value, T47D mammary malignancy. The protocol:
as §1

For the next series, the system named is Hela cervix malignancy. Description: SRB antiproliferative assay. It counts as cell-based, human. To be noted: read-out: Cytotoxicity (as of %Control) IC50 value, Hela cervix malignancy. The protocol: as §1
For series [4], the system named is PANC1 pancreatic cell line. Briefly: SRB antiproliferative assay. It counts as cell-based, human. As to conditions: read-out: Cytotoxicity (as of %control) IC50 value, PANC1. The method, then: as §1
Series [5] relates to MDA-MB-231 invasive mammary malignancy. Briefly: SRB antiproliferative assay. It counts as cell-based, human. To be noted: read-out: Cytotoxicity (as of %control) IC50 value, MDA-MB-231 invasive mammary malignancy. The protocol: as §1
The next series relates to PC3 prostate malignancy. Description: SRB antiproliferative assay. As to conditions: read-out: Cytotoxicity (as of %Control) IC50 value, PC3 prostate malignancy. Format: cell-based, human. The method, then: as §1
The test system of series [6] is SW480 colorectal cancer cell line. Description: SRB antiproliferative assay. Format: cell-based, human. As to conditions: read-out: Cytotoxicity (as of %control) IC50 value, SW480. The protocol:
as §1

In another series the test system is A549 lung malignancy. Description: SRB antiproliferative assay. Format: cell-based, human. As to conditions: read-out: Cytotoxicity (as of %Control) IC50 value, A549 lung malignancy. The method, then:
as §1

For series [7], the system named is Candida albicans ATCC10231. Briefly: MIC determination, broth microdilution, absorbance 530 nm. Format: cell-based. As to conditions: ATCC10231, 24 h, read-out: C. albicans MIC value at 50% inhibition. The method, then:
(§2) The compounds were tested against Gram-positive bacteria (Staphylococcus aureus ATCC 6538), Gram-negative bacteria (Escherichia coli ATCC 8739) and yeast (Candida albicansATCC10231). […] For bacterial strains, the EUCAST (2025) method was adapted. A few colonies of each bacterial culture previously grown on Mueller-Hinton agar for 24–48 h were suspended in normal saline and adjusted to 0.5 McFarland (1.5 × 10^8 CFU/mL). A 1/10 dilution was prepared in Mueller-Hinton broth (MHB) for the inoculation. In the wells of a 96-well flat-bottom microtiter plate, double serial dilutions of each compound were prepared in MHB. Each well was inoculated with the bacteria to achieve ca. 5 × 10^5 CFU/mL, and the plates were incubated at 37 °C overnight. Positive control (bacteria in culture medium only) and negative control (culture medium) were prepared. Each compound was tested in duplicate. After incubation, the plates were inspected visually for growth inhibition. To test the antimicrobial activity of DMSO, double serial dilutions of DMSO in broth medium were prepared and processed as the samples, but without the addition of the compounds. The antibacterial drug ciprofloxacin was used as a reference for comparison.
(§3) For Candida albicans, the same procedure applied to bacteria was used, except after inoculation, the plates were incubated at 35 °C for 24 h, and after incubation, the absorbance was measured at 530 nm using a plate reader. […] The absorbance of the wells was corrected by subtracting the absorbance of the blank. […] The antifungal drug fluconazole was used as a reference for comparison.

Series [8] has as its system HCT116 colorectal cancer cell line. Description: SRB antiproliferative assay. Format: cell-based. As to conditions: Homo sapiens, HCT-116, 72 h; read-out: Cytotoxicity (as of %control) IC50 value, HCT116. The protocol: as §1
The test system of series [9] is SW620 colorectal cancer cell line. Briefly: SRB antiproliferative assay. It counts as cell-based. As to conditions: Homo sapiens, SW-620, 72 h, read-out: Cytotoxicity (as of %control) IC50 value, SW620. The method, then:
as §1

Another series relates to U87 glioblastoma. Briefly: SRB antiproliferative assay. To be noted: Homo sapiens, 72 h, read-out: Cytotoxicity (as of %Control) IC50 value, U87 Gliobalstoma. Format: cell-based. The method, then: as §1
The test system of series [10] is CACO2 colorectal cancer cell line. Description: SRB antiproliferative assay. Format: cell-based. As to conditions: Homo sapiens, Caco-2, 72 h; read-out: Cytotoxicity (as of %control) IC50 value, CACO2. The protocol: as §1
A further series concerns A375 skin melanoma. Description: SRB antiproliferative assay. To be noted: Homo sapiens, A-375, 72 h; read-out: Cytotoxicity (as of %Control) IC50 value, A375 skin melanoma. It counts as cell-based. The method, then: as §1
Series [11] concerns HT29 colorectal cancer cell line. Description: SRB antiproliferative assay. As to conditions: Homo sapiens, HT-29, 72 h; read-out: Cytotoxicity (as of %control) IC50 value, HT29. Format: cell-based. The protocol: as §1
Series [12] relates to Escherichia coli ATCC 8739. Description: MIC determination, broth microdilution (EUCAST adapted). As to conditions: ATCC8739, read-out: E. coli MIC value. It counts as cell-based. The method, then:
as §2, §3
Background: Dilution methods test growth across graded concentrations, often in twofold steps.

Series [13] has as its system Staphylococcus aureus ATCC 6538. Described as above. It counts as cell-based. To be noted: ATCC6538, read-out: S. aureus MIC value. The protocol: as §2, §3
Setting [14] is: 72 h incubations, 3.125-200µM range, mean ± SD n = 4.

As a reminder, the IC50 is the midpoint of a concentration-inhibition curve. As for `COc1ccc2c(c1)c(CC(=O)O)c(C)n2C(=O)c1ccc(Cl)cc1` [Indomethacin, reference compound], in the series with RAW 264.7 macrophages, the IC50 was greater than 200 µM.

`N.N.[Cl][Pt][Cl]` [Cisplatin, reference compound]: the IC50 is 5.6 µM in [1] (SRB, normal PDL fibroblasts, unit printed for cisplatin cell and footnote); 3.77 ± 0.25 µM in series [2] (setting [14]); 9.8 ± 0.1 µM in series [3] (setting [14]); 31.6 ± 0.44 µM with MCF7 mammary malignancy (setting [14]); 34.2 ± 0.5 µM in the series with T47D mammary malignancy (setting [14]); 27.3 ± 0.9 µM with Hela cervix malignancy (setting [14]). The IC50 in series [4] (setting [14]) is 41.5 ± 0.4 µM; in series [5] (72 h incubations, 3.125-200 µM range, mean ± SD n = 4), 11.8 ± 1.4 µM; in the series with PC3 prostate malignancy (setting [14]) it was 12.5 ± 0.2 µM; in series [6] (setting [14]) it was 8.92 ± 0.24 µM; with A549 lung malignancy (setting [14]) it was 71.9 ± 2.9 µM.

Usually MIC stands for the smallest concentration in the dilution series that meets the test's criterion for growth inhibition. With `OC(Cn1cncn1)(Cn1cncn1)c1ccc(F)cc1F` [Fluconazole, reference compound], the MIC in series [7] amounted to 3.9 mg/L (≈ 12.7 µM).

`COc1ccccc1/C=N/NC(=S)N/N=C/c1ccccc1OC` [L1, 1,5-bis(2-methoxyanisaldehyde) thiocarbohydrazine]: the IC50 was 36.1 ± 1.9 µM in [8]; less than 3.12 µM in series [9]; 29.5 ± 0.2 µM in the series on U87 glioblastoma; 23.2 ± 0.6 µM in series [10]; 41.7 ± 0.7 µM in the series on A375 skin melanoma; 42.1 ± 5.7 µM in series [11]. Moreover, the IC50 was greater than 200 µM in series [1] (Fibroblast); 46.4 ± 1.11 µM in [2] (Homo sapiens, BT-549, 72 h); 72.9 ± 3.4 µM in series [3] (Homo sapiens, MDA-MB-453, 72 h); 52.4 ± 5.25 µM with MCF7 mammary malignancy (Homo sapiens, MCF7, 72 h); 21.8 ± 1.2 µM with T47D mammary malignancy (Homo sapiens, T47D, 72 h); 44.8 ± 3.8 µM in the series on Hela cervix malignancy (Homo sapiens, HeLa, 72 h). Further, the IC50 in [4] (Homo sapiens, PANC-1, 72 h) was 66.8 ± 0.2 µM; in [5] (Homo sapiens, MDA-MB-231, 72 h), 29.2 ± 3.8 µM; in the series with PC3 prostate malignancy (Homo sapiens, 72 h) it was 145 ± 1.5 µM; in series [6] (Homo sapiens, SW480, 72 h), 5.35 ± 0.25 µM; in the series on A549 lung malignancy (Homo sapiens, A549, 72 h) it was 44.8 ± 1.8 µM; in the series with RAW 264.7 macrophages, greater than 200 µM. Also, the figures for the MIC in series [12], in series [13] and in series [7] were 31.3 mg/L (≈ 91.4 µM), 15.6 mg/L (≈ 45.6 µM) and 31.3 mg/L (≈ 91.4 µM), respectively.

For the compound `O=C(O)c1cn(C2CC2)c2cc(N3CCNCC3)c(F)cc2c1=O` [Ciprofloxacin, reference compound], the results for the MIC in [12] and in [13] were 0.0008 mg/L (≈ 0.00241 µM) and 0.097 mg/L (≈ 0.293 µM), respectively.
